# Measurements from ChEMBL document CHEMBL1795207, “Syntheses of cellotriose and cellotetraose analogues as transition state mimics for mechanistic studies of cellulases” (Bioorg Med Chem, 2011).
# Legend:
# Endoglucanase-5 [1] = target: T1, Endoglucanase-5 (Mycothermus thermophilus, UniProt P43316); assay: Binding affinity to Humicola insolens NCE5 assessed as dissociation constant at pH 3.0 and at 59 degC by differential scanning calorimetry
# T1 sequence (P43316 whole entry): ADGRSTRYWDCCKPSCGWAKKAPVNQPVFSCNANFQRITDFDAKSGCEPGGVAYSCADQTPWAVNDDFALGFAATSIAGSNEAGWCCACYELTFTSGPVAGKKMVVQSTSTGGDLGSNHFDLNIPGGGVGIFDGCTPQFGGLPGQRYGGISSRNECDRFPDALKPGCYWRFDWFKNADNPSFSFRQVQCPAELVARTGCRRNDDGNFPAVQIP
# Endoglucanase-5 [2] = target: T1, Endoglucanase-5; assay: Binding affinity to Humicola insolens NCE5 assessed as dissociation constant at pH 4
Compound,Ki (Endoglucanase-5 [1]) [mM],Ki (Endoglucanase-5 [2]) [mM]
CO[C@H]1O[C@H](CO)[C@@H](S[C@@H]2O[C@H](CO)[C@@H](O[C@@H]3O[C@H](CO)[C@@H](O)[C@H](O)[C@H]3O)[C@H](O)[C@H]2O)[C@H](O)[C@H]1O,> 30,–
CO[C@@H]1O[C@H](CO)[C@@H](S[C@@H]2O[C@H](CO)[C@@H](O[C@@H]3O[C@H](CO)[C@@H](O)[C@H](O)[C@H]3O)[C@H](O)[C@H]2O)[C@H](O)[C@H]1O,> 30,–
CO[C@@H]1O[C@H](CO)[C@@H](O[C@@H]2O[C@H](CO)[C@@H](S[C@@H]3O[C@H](CO)[C@@H](O[C@@H]4O[C@H](CO)[C@@H](O)[C@H](O)[C@H]4O)[C@H](O)[C@H]3O)[C@H](O)[C@H]2O)[C@H](O)[C@H]1O,3.9,–
CO[C@H]1O[C@H](CO)[C@@H](S[C@@H]2C=C(CO)[C@@H](O[C@@H]3O[C@H](CO)[C@@H](O)[C@H](O)[C@H]3O)[C@H](O)[C@H]2O)[C@H](O)[C@H]1O,25,–
CO[C@@H]1O[C@H](CO)[C@@H](S[C@@H]2C=C(CO)[C@@H](O[C@@H]3O[C@H](CO)[C@@H](O)[C@H](O)[C@H]3O)[C@H](O)[C@H]2O)[C@H](O)[C@H]1O,29,–
CO[C@@H]1O[C@H](CO)[C@@H](O[C@@H]2O[C@H](CO)[C@@H](S[C@@H]3C=C(CO)[C@@H](O[C@@H]4O[C@H](CO)[C@@H](O)[C@H](O)[C@H]4O)[C@H](O)[C@H]3O)[C@H](O)[C@H]2O)[C@H](O)[C@H]1O,1.6,–
O=C[C@H](O)[C@@H](O)[C@H](O[C@@H]1O[C@H](CO)[C@@H](O[C@@H]2O[C@H](CO)[C@@H](O[C@@H]3O[C@H](CO)[C@@H](O[C@@H]4O[C@H](CO)[C@@H](O[C@@H]5O[C@H](CO)[C@@H](O)[C@H](O)[C@H]5O)[C@H](O)[C@H]4O)[C@H](O)[C@H]3O)[C@H](O)[C@H]2O)[C@H](O)[C@H]1O)[C@H](O)CO [CELLOHEXOSE],–,0.42
